Experimental data reported in patent publication US12338249B2, “Crystalline forms of N-(4-(1-(2,6-difluorobenzyl)-5-((dimethylamino)methyl)-3-(6-methoxy-3-pyridazinyl)-2,4-dioxo-1,2,3,4-tetrahydrothieno[2,3-d]pyrimidin-6-yl)phenyl)-N′-methoxyurea” (Sumitomo Pharma Switzerland GmbH, priority 2019, dated 2025).

Assay: Thermodynamic aqueous solubility of crystalline Forms I and II of Compound 1 (HPLC)
Assay type: physicochemical
Method: Substance contents in test solutions were measured using HPLC Prominence/PDA detector (Shimadzu Corporation). The analytical conditions and calculation formula were as follows: […]
The thermodynamic solubility of Forms I and II was determined at pH 1.2 and pH 6.8 and in 20 mM GCDC, pH 6.8 at 37° C. with an equilibrium period for 2, 6 and 24 hours.

[1] = 20 mM GCDC (sodium glycochenodeoxycholate), pH 6.8, 37° C., 2 hrs equilibrium, average n=3
[2] = 20 mM GCDC (sodium glycochenodeoxycholate), pH 6.8, 37° C., 6 hrs equilibrium, average n=3
[3] = 20 mM GCDC (sodium glycochenodeoxycholate), pH 6.8, 37° C., 24 hrs equilibrium, average n=3
[4] = pH 6.8, 37° C., 2 hrs equilibrium, average n=3
[5] = pH 6.8, 37° C., 6 hrs equilibrium, average n=3
[6] = pH 6.8, 37° C., 24 hrs equilibrium, average n=3

Aqueous Solubility [1] [µg/mL]	Aqueous Solubility [2] [µg/mL]	Aqueous Solubility [3] [µg/mL]	Solubility compared between Form I and Form II (in words) (20 mM GCDC, pH 6.8, 37° C.)	Aqueous Solubility (pH 1.2, 37° C., 2 hrs equilibrium, average n=3) [µg/mL]	Aqueous Solubility (pH 1.2, 37° C., 6 hrs equilibrium, average n=3) [µg/mL]	Aqueous Solubility (pH 1.2, 37° C., 24 hrs equilibrium, average n=3) [µg/mL]	Solubility compared between Form I and Form II (in words) (pH 6.8, 37° C.)	Aqueous Solubility [4] [µg/mL]	Aqueous Solubility [5] [µg/mL]	Aqueous Solubility [6] [µg/mL]	Aqueous solubility compared between Form II and Form I (in words) (37° C., overall comparison of Tables 3 and 4)	solubility at 2 h (aqueous solution, pH 1.2, 37 °C, pH 1.2, simulated gastric fluid, thermodynamic from solid, 2 hrs equilibrium, average n=3) [µg/mL]	solubility at 6 h (aqueous solution, pH 1.2, 37 °C, pH 1.2, simulated gastric fluid, thermodynamic from solid, 6 hrs equilibrium, average n=3) [µg/mL]	solubility at 24 h (aqueous solution, pH 1.2, 37 °C, pH 1.2, simulated gastric fluid, thermodynamic from solid, 24 hrs equilibrium, average n=3) [µg/mL]	Solubility compared between Form I and Form II (in words) (pH 6.8, 37° C., listed as Form II of Compound 1)	SMILES
960	980	970	lower solubility than Form II	>10000	>10000	>10000	lower solubility than Form II	80	80	70	–	–	–	–	–	CONC(=O)Nc1ccc(-c2sc3c(c2CN(C)C)c(=O)n(-c2ccc(OC)nn2)c(=O)n3Cc2c(F)cccc2F)cc1 [Form I, N-(4-(1-(2,6-difluorobenzyl)-5-((dimethylamino)methyl)-3-(6-methoxy-3-pyridazinyl)-2,4-dioxo-1,2,3,4-tetrahydrothieno[2,3-d]pyrimidin-6-yl)phenyl)-N′-methoxyurea]
2750	3300	4120	–	–	–	–	–	520	510	520	more soluble than Form I of Compound 1	> 10000	> 10000	> 10000	higher aqueous solubility	CONC(=O)Nc1ccc(-c2sc3c(c2CN(C)C)c(=O)n(-c2ccc(OC)nn2)c(=O)n3Cc2c(F)cccc2F)cc1 [Form II, N-(4-(1-(2,6-difluorobenzyl)-5-((dimethylamino)methyl)-3-(6-methoxy-3-pyridazinyl)-2,4-dioxo-1,2,3,4-tetrahydrothieno[2,3-d]pyrimidin-6-yl)phenyl)-N′-methoxyurea]
